Source: ChEMBL document CHEMBL1201862, “PubChem BioAssay data set” (2004)
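Briefly, cells in 96-well plates were exposed to five compound concentrations for 48 h, and endpoints were estimated by linear interpolation. GI50 = concentration required for 50% inhibition of growth.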 Activity calls are given as the source filed them. No stated cut-off is given here; in the data, active = GI50 up to about 1.1 µM and inactive = higher.

Tests used:
Assay in all cases: NCI-60 cell line screen, 48 h
786-0 = system: 786-0
BT-549 = system: BT-549
HCC 2998 = system: HCC 2998
HCT-116 = system: HCT-116
HL-60 = system: HL-60
HOP-62 = system: HOP-62
Hs-578T = system: Hs-578T
M14 = system: M14
MCF7 = system: MCF7
Malme-3M = system: Malme-3M
NCI-H226 = system: NCI-H226
NCI-H460 = system: NCI-H460
OVCAR-5 = system: OVCAR-5
OVCAR-8 = system: OVCAR-8
PC-3 = system: PC-3
SF-295 = system: SF-295
SK-MEL-2 = system: SK-MEL-2
SNB-75 = system: SNB-75
SW-620 = system: SW-620
U-251 = system: U-251

SMILES | GI50 (786-0) | GI50 (BT-549) | GI50 (HCC 2998) | GI50 (HCT-116) | GI50 (HL-60) | GI50 (HOP-62) | GI50 (Hs-578T) | GI50 (M14) | GI50 (MCF7) | GI50 (Malme-3M) | GI50 (NCI-H226) | GI50 (NCI-H460) | GI50 (OVCAR-5) | GI50 (OVCAR-8) | GI50 (PC-3) | GI50 (SF-295) | GI50 (SK-MEL-2) | GI50 (SNB-75) | GI50 (SW-620) | GI50 (U-251)
COc1cc([C@@H]2c3[nH]c4ccccc4c3C(Nc3ccc([N+](=O)[O-])cc3)[C@H]3COC(=O)N23)cc(OC)c1O (stereo partly drawn) | 0.177 µM (active) | 0.611 µM (active) | 0.392 µM (active) | 0.365 µM (active) | < 0.01 µM (active) | 0.0873 µM (active) | 0.305 µM (active) | 0.321 µM (active) | 0.0361 µM (active) | 0.161 µM (active) | 0.138 µM (active) | < 0.0181 µM (active) | 0.369 µM (active) | 0.285 µM (active) | 0.698 µM (active) | 0.125 µM (active) | 0.847 µM (active) | 0.175 µM (active) | 0.248 µM (active) | 0.147 µM (active)
O=C(Nc1cc(C(=O)Nc2cccc(S(=O)(=O)O)c2)cc(C(=O)Nc2cccc(S(=O)(=O)O)c2)c1)c1cccc(C(=O)Nc2cc(C(=O)Nc3cccc(S(=O)(=O)O)c3)cc(C(=O)Nc3cccc(S(=O)(=O)O)c3)c2)c1 | > 100 µM (inactive) | > 100 µM (inactive) | > 100 µM (inactive) | > 100 µM (inactive) | 17.7 µM (inactive) | > 100 µM (inactive) | > 100 µM (inactive) | 97.1 µM (inactive) | > 100 µM (inactive) | > 100 µM (inactive) | > 100 µM (inactive) | > 100 µM (inactive) | > 100 µM (inactive) | > 100 µM (inactive) | > 100 µM (inactive) | > 100 µM (inactive) | > 100 µM (inactive) | > 100 µM (inactive) | > 100 µM (inactive) | > 100 µM (inactive)
CC(C)Oc1cccc(N2C(Nc3ccccc3)=Nc3ccncc3S2(=O)=O)c1 | 17.7 µM (inactive) | 22.4 µM (inactive) | 1.69 µM (inactive) | 20.4 µM (inactive) | 0.41 µM (active) | 32.7 µM (inactive) | 39.7 µM (inactive) | 25.3 µM (inactive) | 17.6 µM (inactive) | 23.2 µM (inactive) | 24.1 µM (inactive) | 13.3 µM (inactive) | 48.1 µM (inactive) | 18.2 µM (inactive) | 6.12 µM (inactive) | 23.1 µM (inactive) | 7.01 µM (inactive) | > 100 µM (inactive) | 17.3 µM (inactive) | 7.67 µM (inactive)
O=C(O)CNC(=O)C(CSC(=O)OCC1c2ccccc2-c2ccccc21)NC(=O)CCC(NC(=O)OCC1c2ccccc2-c2ccccc21)C(=O)O (stereo not drawn) | 3.05 µM (inactive) | > 100 µM (inactive) | > 100 µM (inactive) | 18 µM (inactive) | 28.8 µM (inactive) | 14.2 µM (inactive) | 68.1 µM (inactive) | > 100 µM (inactive) | > 100 µM (inactive) | 20.7 µM (inactive) | 38.8 µM (inactive) | 18.6 µM (inactive) | > 100 µM (inactive) | 16.4 µM (inactive) | 15.5 µM (inactive) | 16.6 µM (inactive) | > 100 µM (inactive) |  | 19 µM (inactive) | 
C/C(=N\NC(N)=O)C(CN1CCOCC1)C(c1ccccc1)c1c(O)c2ccccc2oc1=O (stereo not drawn) | > 100 µM (inactive) | > 100 µM (inactive) | > 100 µM (inactive) | > 100 µM (inactive) | > 100 µM (inactive) |  | > 100 µM (inactive) | > 100 µM (inactive) | > 100 µM (inactive) | > 100 µM (inactive) | > 100 µM (inactive) |  | > 100 µM (inactive) | > 100 µM (inactive) | > 100 µM (inactive) |  | > 100 µM (inactive) | > 100 µM (inactive) | > 100 µM (inactive) | > 100 µM (inactive)
CN(C)c1ccc(C=c2c3cc(O)ccc3n3c2cc(-c2ccccc2)[n+]3C)cc1 | 1.09 µM (active) | 0.383 µM (active) | 2.22 µM (inactive) | 1.39 µM (inactive) | 0.254 µM (active) | 1.81 µM (inactive) | 0.333 µM (active) | 1.51 µM (inactive) | 0.692 µM (active) |  | 1.66 µM (inactive) |  | 4.82 µM (inactive) | 0.76 µM (active) | 0.9 µM (active) | 3.78 µM (inactive) | 1.27 µM (inactive) | 0.468 µM (active) | 1.22 µM (inactive) | 0.317 µM (active)
CCCC(=O)NC1=C(NCC)C(=O)c2ccccc2C1=O | > 100 µM (inactive) | > 100 µM (inactive) | 86.3 µM (inactive) | 43.7 µM (inactive) | 40.5 µM (inactive) | > 100 µM (inactive) | > 100 µM (inactive) | > 10 µM (inactive) | 63.5 µM (inactive) | 38.5 µM (inactive) | > 100 µM (inactive) | > 100 µM (inactive) | > 100 µM (inactive) |  | 40.9 µM (inactive) | > 100 µM (inactive) |  | > 100 µM (inactive) | 33.4 µM (inactive) | > 100 µM (inactive)
COC(=O)Cc1c2n(c3ccccc13)C(=O)N1c3ccccc3C(CC(=O)OC)C21 (stereo not drawn) | 13.1 µM (inactive) | 25.5 µM (inactive) | 68.1 µM (inactive) | 23 µM (inactive) | 3.89 µM (inactive) | 17.4 µM (inactive) | 21.1 µM (inactive) |  | 59.3 µM (inactive) | 81.3 µM (inactive) | > 100 µM (inactive) | 11.6 µM (inactive) | 32.9 µM (inactive) | 31.8 µM (inactive) | 51.5 µM (inactive) | 18.8 µM (inactive) | 38.7 µM (inactive) | 7.45 µM (inactive) | > 100 µM (inactive) | 28.3 µM (inactive)
C1CSC(Sc2nc(SC3=NCCS3)nc(SC3=NCCS3)n2)=N1 | > 100 µM (inactive) | > 100 µM (inactive) | > 100 µM (inactive) | > 100 µM (inactive) | > 100 µM (inactive) | > 100 µM (inactive) | > 100 µM (inactive) | > 100 µM (inactive) | > 100 µM (inactive) | > 100 µM (inactive) | > 100 µM (inactive) | > 100 µM (inactive) | > 100 µM (inactive) | > 100 µM (inactive) | > 100 µM (inactive) | > 100 µM (inactive) | > 100 µM (inactive) |  | > 100 µM (inactive) | > 100 µM (inactive)
CC1=NNC(=S)NCCCN2CCN(CCCNC(=S)NN=C(C)C=NNC(=S)NCCCN3CCN(CCCNC(=S)NN=C1)CC3)CC2 | > 100 µM (inactive) | > 100 µM (inactive) | > 100 µM (inactive) | > 100 µM (inactive) | > 100 µM (inactive) | > 100 µM (inactive) | > 100 µM (inactive) | > 100 µM (inactive) | > 100 µM (inactive) | > 100 µM (inactive) | > 100 µM (inactive) |  | > 100 µM (inactive) | > 100 µM (inactive) | > 100 µM (inactive) | > 100 µM (inactive) | > 100 µM (inactive) | > 100 µM (inactive) | > 100 µM (inactive) | > 100 µM (inactive)
COc1ccc(/C=C2/C(=O)C(c3ccccc3)N(c3ccccc3)C2=O)cc1OC (stereo not drawn) | > 10 µM (inactive) | > 10 µM (inactive) | > 10 µM (inactive) | > 10 µM (inactive) | > 10 µM (inactive) | > 10 µM (inactive) | > 10 µM (inactive) | > 10 µM (inactive) | > 10 µM (inactive) | 1.42 µM (inactive) | > 10 µM (inactive) | > 10 µM (inactive) | > 10 µM (inactive) | > 10 µM (inactive) | > 10 µM (inactive) | > 10 µM (inactive) | > 10 µM (inactive) |  | > 10 µM (inactive) | > 10 µM (inactive)
Oc1ccc(/C=C/c2cc(O)cc3c2C(c2cc(O)cc(O)c2)C(c2ccc(O)c(O)c2)O3)cc1 (stereo not drawn) | 41.8 µM (inactive) | 23.7 µM (inactive) | 25.4 µM (inactive) | 35.9 µM (inactive) | 27.1 µM (inactive) | 35.9 µM (inactive) | 26.4 µM (inactive) | 31.9 µM (inactive) | 33.3 µM (inactive) | 26.7 µM (inactive) | 26 µM (inactive) |  | 35.6 µM (inactive) | 21.6 µM (inactive) | 31.3 µM (inactive) | 36.6 µM (inactive) | 28.4 µM (inactive) | 49.5 µM (inactive) | 39.2 µM (inactive) | 31 µM (inactive)
COc1cc2nc(-c3ccc4ccccc4c3)nc(O)c2cc1OC | 22.9 µM (inactive) | > 100 µM (inactive) | > 100 µM (inactive) | > 100 µM (inactive) | > 100 µM (inactive) | 19 µM (inactive) | 53.2 µM (inactive) | > 100 µM (inactive) | > 100 µM (inactive) | 49.2 µM (inactive) | > 100 µM (inactive) | > 100 µM (inactive) | > 100 µM (inactive) | 43.2 µM (inactive) | > 100 µM (inactive) | 48.9 µM (inactive) | 42.8 µM (inactive) | 13.8 µM (inactive) |  | 
CN(c1cn(C2CC[C@@H](CO)O2)c(=O)[nH]c1=O)C1CCCCC1 (stereo partly drawn) | > 100 µM (inactive) | > 100 µM (inactive) | > 100 µM (inactive) | > 100 µM (inactive) | > 100 µM (inactive) | > 100 µM (inactive) | 30 µM (inactive) | > 100 µM (inactive) | > 100 µM (inactive) | > 100 µM (inactive) | > 100 µM (inactive) | > 100 µM (inactive) | > 100 µM (inactive) | > 100 µM (inactive) | > 100 µM (inactive) | > 100 µM (inactive) |  | 21.9 µM (inactive) | > 100 µM (inactive) | > 100 µM (inactive)
